A short description of series [1]: Stability of peptides in Fasted-State Simulated Intestinal Fluid (FaSSIF). Type of series: in vitro ADME. The settings on record: FaSSIF with 10 mg/ml pancreatin; FaSSIF pH 6.5 with 10 mg/ml pancreatin, 37° C., t = 15 mins.
Description: Stability of peptides was tested in Fasted-State Simulated Intestinal Fluid (FaSSIF) prepared according to manufacturer's protocol (Biorelevant, art.no. FFF01, pH 6.5). […] FaSSIF was pre-incubated for 15 min at 37° C. and spiked with test and reference item working solutions. Experiments were conducted in duplicate in a non-serial manner. The total incubation volume per replicate was 150 μl. Sampling time points for test items were 0, 0.5, 2, 5, 10, 15 and 30 min. All samples and calibration standards (prepared in FaSSIF) were precipitated by addition of 300 μl precipitant (ACN / 2% acetic acid / 0.2% HFBA, (precipitation reagent, PR)) containing internal standard (ISTD) to 150 μl sample. After incubation for 1 h at room temperature all samples were centrifuged for 10 min at 2,200×g (room temperature).
Series [2] deals with T1, human GLP1 receptor (Homo sapiens, UniProt P43220).
T1 construct: expressed in transfected cells; host or cells: HEK cells, BacMam virus transduction
The experiment in a line: cAMP accumulation assay, functional agonism of human GLP1 receptor. In kind it is cell-based. The settings on record: HEK cells infected with human GLP1 receptor BacMam virus, HTRF cAMP; for Emax: HEK293, read-out: Human GLP-1R agonist cAMP Emax; for EC50: read-out: Human GLP-1R agonist cAMP pEC50 (converted). The procedure, abridged: (§1)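 HEK cells transduced for 24 hours with human GLP2 or GLP1 receptor BacMam virus were frozen, then stimulated with agonist in HBSS containing 0.5 mM IBMX. After 45 min at 37° C, cAMP was measured by HTRF after adding detection reagents in lysis buffer.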

Series [3] has as its target T2, human GLP2 receptor (Homo sapiens, UniProt O95838).
T2 construct: expressed in transfected cells; host or cells: HEK cells, BacMam virus transduction
T2 sequence (O95838 1-553): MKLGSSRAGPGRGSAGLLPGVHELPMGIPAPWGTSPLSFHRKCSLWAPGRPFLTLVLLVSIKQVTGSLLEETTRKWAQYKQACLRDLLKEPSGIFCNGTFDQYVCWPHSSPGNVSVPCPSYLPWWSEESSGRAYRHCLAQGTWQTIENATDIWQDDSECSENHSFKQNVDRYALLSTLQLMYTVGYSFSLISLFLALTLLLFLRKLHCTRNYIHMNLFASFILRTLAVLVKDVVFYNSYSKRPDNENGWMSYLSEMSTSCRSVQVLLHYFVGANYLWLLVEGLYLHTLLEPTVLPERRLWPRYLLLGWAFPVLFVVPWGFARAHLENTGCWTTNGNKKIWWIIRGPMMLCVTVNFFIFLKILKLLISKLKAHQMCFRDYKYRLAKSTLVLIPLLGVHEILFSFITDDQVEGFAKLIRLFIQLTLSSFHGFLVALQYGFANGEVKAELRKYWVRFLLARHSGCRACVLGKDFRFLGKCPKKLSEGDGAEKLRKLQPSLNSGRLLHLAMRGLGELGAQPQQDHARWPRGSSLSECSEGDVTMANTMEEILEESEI
The experiment in a line: cAMP accumulation assay, functional agonism of human GLP2 receptor. The note with it: HEK cells infected with human GLP2 receptor BacMam virus, HTRF cAMP; for Emax: HEK293, read-out: Human GLP-2R agonist cAMP Emax; for EC50: read-out: Human GLP-2R agonist cAMP pEC50 (converted). In kind it is cell-based. An outline of the steps:
as §1
In general terms: Changes in cAMP serve as a functional read-out for many G protein-coupled receptors.

Positions of bridges follow the written chain, without caps; N, C: chain ends. Non-standard residues stand in square brackets, D forms with d. Residues, ends and D or L forms follow the SMILES beside them. *: point of attachment. Malonyl(2,2-Me2,histaminyl) = CC(C)(C(=O)NCCc1cnc[nH]1)C(=O)*; Ala(1H-tetrazol-5-yl) = N[C@@H](Cc1nnn[nH]1)C(=O)O; Nle = CCCC[C@H](N)C(=O)O; Aib = CC(C)(N)C(=O)O

T1 sequence (P43220 24-463): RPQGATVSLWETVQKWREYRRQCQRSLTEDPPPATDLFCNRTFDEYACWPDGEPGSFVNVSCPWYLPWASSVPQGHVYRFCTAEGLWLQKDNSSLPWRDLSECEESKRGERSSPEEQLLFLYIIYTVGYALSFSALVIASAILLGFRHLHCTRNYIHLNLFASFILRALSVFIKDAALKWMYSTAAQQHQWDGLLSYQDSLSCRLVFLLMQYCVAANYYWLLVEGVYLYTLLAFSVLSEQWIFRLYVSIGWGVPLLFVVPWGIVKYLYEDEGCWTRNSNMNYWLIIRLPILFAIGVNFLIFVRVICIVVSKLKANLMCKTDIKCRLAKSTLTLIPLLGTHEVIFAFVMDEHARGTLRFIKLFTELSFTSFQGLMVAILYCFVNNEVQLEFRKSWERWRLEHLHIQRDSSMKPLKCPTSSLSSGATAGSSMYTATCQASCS

The term amount remaining denotes the share of the starting amount still present when the sample was taken. As a reminder, the Emax is the size of the effect at its maximum, as opposed to the concentration needed. As for `CCCC[C@H](NC(=O)[C@H](CCC(=O)O)NC(=O)[C@H](CC(=O)O)NC(=O)[C@H](CO)NC(=O)[C@H](Cc1ccccc1)NC(=O)[C@H](CO)NC(=O)CNC(=O)[C@H](CC(=O)O)NC(=O)C(C)(C)NC(=O)[C@@H](N)Cc1c[nH]cn1)C(=O)N[C@H]1CC(=O)NCCCC[C@@H](C(=O)N[C@@H](CC(C)C)C(=O)N[C@@H](CCCCN)C(=O)N[C@@H](C)C(=O)N[C@@H](C)C(=O)N[C@@H](CCCCN)C(=O)N[C@@H](CC(=O)O)C(=O)N[C@@H](Cc2ccccc2)C(=O)N[C@H](C(=O)N[C@@H](CC(N)=O)C(=O)N[C@@H](Cc2c[nH]c3ccccc23)C(=O)N[C@@H](CC(C)C)C(=O)N[C@H](C(=O)N[C@@H](CCC(N)=O)C(=O)N[C@H](C(=O)N[C@@H](CCCCN)C(=O)N[C@H](C(=O)N[C@H](C(=O)N[C@@H](CC(=O)O)C(N)=O)[C@@H](C)O)[C@@H](C)CC)[C@@H](C)O)[C@@H](C)CC)[C@@H](C)CC)NC(=O)[C@H](CC(C)C)NC(=O)[C@H]([C@@H](C)CC)NC(=O)[C@H]([C@@H](C)O)NC1=O` [Example 86] (H-H[Aib]DGSFSDE[Nle]DTILKLKAAKDFINWLIQTKITD-NH2; lactam 11-15; C-terminus assumed), the amount remaining at 0.25 h in series [1] was 5.1%. In addition, in series [2], the Emax worked out at 93.5% and the EC50 is 25.1 nM. Besides, in series [3], the maximal response (Emax) came to 103% and the EC50 is 0.0251 nM.

Regarding `CCCC[C@H](NC(=O)[C@H](CCC(=O)O)NC(=O)[C@H](CC(=O)O)NC(=O)[C@H](CO)NC(=O)[C@H](Cc1ccccc1)NC(=O)[C@H](CO)NC(=O)CNC(=O)[C@H](CC(=O)O)NC(=O)C(C)(C)NC(=O)[C@@H](N)Cc1c[nH]cn1)C(=O)N[C@H](Cc1ccccc1)C(=O)N[C@H](C(=O)N[C@H](C(=O)N[C@@H](CC(C)C)C(=O)N[C@@H](CC(=O)O)C(=O)N[C@@H](CC(C)C)C(=O)N[C@@H](CCCCN)C(=O)N[C@@H](C)C(=O)N[C@@H](C)C(=O)N[C@@H](CCCCN)C(=O)N[C@@H](CC(=O)O)C(=O)N[C@@H](Cc1ccccc1)C(=O)N[C@H](C(=O)N[C@@H](CC(N)=O)C(=O)N[C@@H](Cc1c[nH]c2ccccc12)C(=O)N[C@@H](CC(C)C)C(=O)N[C@H](C(=O)N[C@@H](CCC(N)=O)C(=O)N[C@H](C(=O)N[C@H]1CCC(=O)NCCCC[C@@H](C(N)=O)NC(=O)[C@H]([C@@H](C)O)NC(=O)[C@H]([C@@H](C)CC)NC1=O)[C@@H](C)O)[C@@H](C)CC)[C@@H](C)CC)[C@@H](C)CC)[C@@H](C)O` [Example 90] (H-H[Aib]DGSFSDE[Nle][dF]TILDLKAAKDFINWLIQTEITK-NH2; lactam 30-33 (inferred); C-terminus assumed), the amount remaining at 0.25 h in series [1] was 22%. Besides, in series [2], the maximal effect (Emax) came out at 100% and the EC50 was 7.94 nM. Also, in series [3], the maximal response (Emax) came out at 102% and the EC50 was 0.0251 nM.

Take `CCCC[C@H](NC(=O)[C@H](CCC(=O)O)NC(=O)[C@H](CC(=O)O)NC(=O)[C@H](CO)NC(=O)[C@H](Cc1ccccc1)NC(=O)[C@H](CO)NC(=O)CNC(=O)[C@H](Cc1nn[nH]n1)NC(=O)C(C)(C)C(=O)NCCc1c[nH]cn1)C(=O)N[C@H](Cc1ccccc1)C(=O)N[C@H]1CCCCNC(=O)C[C@@H](C(=O)N[C@@H](CCCCN)C(=O)N[C@@H](C)C(=O)N[C@@H](C)C(=O)N[C@@H](CCCCN)C(=O)N[C@@H](CC(=O)O)C(=O)N[C@@H](Cc2ccccc2)C(=O)N[C@H](C(=O)N[C@@H](CC(N)=O)C(=O)N[C@@H](Cc2c[nH]c3ccccc23)C(=O)N[C@@H](CC(C)C)C(=O)N[C@H](C(=O)N[C@@H](CCC(N)=O)C(=O)N[C@H](C(=O)N[C@@H](CCCCN)C(=O)N[C@H](C(=O)N[C@H](C(=O)N[C@@H](Cc2ccccc2)C(N)=O)[C@@H](C)O)[C@@H](C)CC)[C@@H](C)O)[C@@H](C)CC)[C@@H](C)CC)NC(=O)[C@H](CC(=O)O)NC(=O)[C@H](CC(C)C)NC(=O)[C@H]([C@@H](C)CC)NC1=O` [Example 91] ({Malonyl(2,2-Me2,histaminyl)}-[Ala(1H-tetrazol-5-yl)]GSFSDE[Nle][dF]KILDDKAAKDFINWLIQTKITF-NH2; lactam 10-14): the share remaining at 0.25 h in series [1] is 8.8%. Besides, the Emax in series [2] turned out to be 98.8%; in series [3], 104%. Also, the results for the EC50 in series [2] and in series [3] were 0.251 nM and 0.01 nM, respectively.

Consider `CCCC[C@H](NC(=O)[C@H](CCC(=O)O)NC(=O)[C@H](CC(=O)O)NC(=O)[C@H](CO)NC(=O)[C@H](Cc1ccccc1)NC(=O)[C@H](CO)NC(=O)CNC(=O)[C@H](Cc1nn[nH]n1)NC(=O)C(C)(C)C(=O)NCCc1c[nH]cn1)C(=O)N[C@H](Cc1ccccc1)C(=O)N[C@H]1CCCCNC(=O)C[C@@H](C(=O)N[C@@H](CCCCN)C(=O)N[C@@H](C)C(=O)N[C@@H](C)C(=O)N[C@@H](CCCCN)C(=O)N[C@@H](CC(=O)O)C(=O)N[C@@H](Cc2ccccc2)C(=O)N[C@H](C(=O)N[C@@H](CC(N)=O)C(=O)N[C@@H](Cc2c[nH]c3ccccc23)C(=O)N[C@@H](CC(C)C)C(=O)N[C@H](C(=O)N[C@@H](CCC(N)=O)C(=O)N[C@H](C(=O)N[C@H]2CCC(=O)NCCCC[C@@H](C(N)=O)NC(=O)[C@H]([C@@H](C)O)NC(=O)[C@H]([C@@H](C)CC)NC2=O)[C@@H](C)O)[C@@H](C)CC)[C@@H](C)CC)NC(=O)[C@H](CC(=O)O)NC(=O)[C@H](CC(C)C)NC(=O)[C@H]([C@@H](C)CC)NC1=O` [Example 105] ({Malonyl(2,2-Me2,histaminyl)}-[Ala(1H-tetrazol-5-yl)]GSFSDE[Nle][dF]KILDDKAAKDFINWLIQTEITK-NH2; lactam 10-14, 28-31 (inferred); C-terminus assumed), for which the share remaining at 0.25 h in series [1] was 1.6%. In series [2], the maximum response (Emax) was determined as 97.4% and the EC50 was 0.0251 nM. In series [3], the Emax was 101% and the EC50 was 0.0251 nM.

Consider `CCCC[C@H](NC(=O)[C@H](CCC(=O)O)NC(=O)[C@H](CC(=O)O)NC(=O)[C@H](CO)NC(=O)[C@H](Cc1ccccc1)NC(=O)[C@H](CO)NC(=O)CNC(=O)[C@H](Cc1nn[nH]n1)NC(=O)C(C)(C)C(=O)NCCc1c[nH]cn1)C(=O)N[C@H](Cc1ccccc1)C(=O)N[C@H](C(=O)N[C@H](C(=O)N[C@@H](CC(C)C)C(=O)N[C@@H](CC(=O)O)C(=O)N[C@H]1CC(=O)NCCCC[C@@H](C(=O)N[C@@H](CC(=O)O)C(=O)N[C@@H](Cc2ccccc2)C(=O)N[C@H](C(=O)N[C@@H](CC(N)=O)C(=O)N[C@@H](Cc2c[nH]c3ccccc23)C(=O)N[C@@H](CC(C)C)C(=O)N[C@H](C(=O)N[C@@H](CCC(N)=O)C(=O)N[C@H](C(=O)N[C@H]2CCC(=O)NCCCC[C@@H](C(N)=O)NC(=O)[C@H]([C@@H](C)O)NC(=O)[C@H]([C@@H](C)CC)NC2=O)[C@@H](C)O)[C@@H](C)CC)[C@@H](C)CC)NC(=O)[C@H](C)NC(=O)[C@H](C)NC(=O)[C@H](CCCCN)NC1=O)[C@@H](C)CC)[C@@H](C)O` [Example 106] ({Malonyl(2,2-Me2,histaminyl)}-[Ala(1H-tetrazol-5-yl)]GSFSDE[Nle][dF]TILDDKAAKDFINWLIQTEITK-NH2; lactam 14-18, 28-31; C-terminus assumed), for which the fraction remaining at 0.25 h in series [1] is 9.6%. In addition, the values for the Emax in series [2] and in series [3] were 97.2% and 102%, respectively. Besides, the EC50 in series [2] is 0.316 nM; in series [3], 0.501 nM.
